In publication PMC10313671, “Accelerating the prediction and discovery of peptide hydrogels with human-in-the-loop” (Nature Communications, 2023):
Where a SMILES comes first, the peptide text is derived from it.

Experiments:
[1] = Peptide hydrogel formation, vial-inverting method; format: physicochemical; set-up: key to EXP / GELATION: 0: no hydrogel; 1: hydrogel; details: for State: ultrasonication, standing 48 h; for State / GELATION / hydrogel formation (in words): vial-inverting method; for Concentration: concentration at which the state was recorded: lowest of 30, 60, 90, 120 mM that gave a gel, 120 mM for non-gelating peptides; for GELATION: 1 = hydrogel, 0 = no hydrogel; for hydrogel formation (in words): representative hydrogels pH between 7.0 to 7.5
Outline: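 Tetrapeptides dissolved in ultrapure water at 30 mM, pH brought to 6.5–8.5 with 1 N NaOH stepwise with brief ultrasonication, then left 48 h. Gel defined as self-supporting and non-flowing on vial inversion; non-gelling peptides retested at 60, 90 and 120 mM.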

[2] = Optical images of aqueous peptide solutions at four concentrations; format: physicochemical; details: pH = 7.5
Description: [7. What are the pH values of the hydrogels formed? […]
the captions of proper figures.]
We thank the reviewer for the comment. […]
the information of pH values of tetrapeptide hydrogels/solutions in the captions of Fig. 3a and d. […]
Insets: […]
optical images of corresponding solution/suspension (pH=7.5). […]
[8. Is it surprising that both QQQQ and EEEE form suspension at 120 mM? Any explanation from either ML perspective or thermodynamic prospective?]
We thank the reviewer for the comment. From the ML or simulation perspective, both QQQQ and […]
hydrophilicity and lack of sufficient directional hydrogen bonds captured in simulation and prediction. However, the formation of suspension in real experiments indicate the formation of aggregates, and we attribute this to the thermodynamic factor of concentration.
Actually, we also found this phenomenon on RRRR (also contains four charged amino acids), and […]
We compared the optical images of QQQQ and EEEE at four concentrations (30, 60, 90, and 120 […]
transparency decreased (60, 90, and 120 mM) due to the formation of aggregates. As for EEEE, at […]
suspension. We tend to think that as the concentration of charged tetrapeptides increases, the hydrogen bond between peptide molecules and water is strengthened, resulting in the formation of […]
aggregates at high concentrations. […]
description in Lines 214-216 of this main text.
Fig. R1 The optical images of QQQQ and EEEE aqueous solutions at four concentrations (30, 60, […]
with different sizes in an aqueous solution, qualitatively consistent with the morphologies obtained in MD simulations except for RRRR (Fig. 3d, right column), showing different levels of aggregation. Taking the TEM result of RRRR together, we attributed this to the thermodynamic factor of concentration. Finally, we presented a summary of the assembled morphologies of all […]
tetrapeptides tended to form fibers, sheets, or hybrid morphology (70%) in an aqueous solution. […]
[…]
(1 picture or pasted object on this page, not shown here)

[3] = Transmission electron microscope (negative staining) of peptide assemblies; details: for Morphology: TEM, negative staining with uranyl acetate, 120 kV; for morphology by TEM (in words): aqueous solution or hydrogel, negative staining
Description: We used the negative staining technique to observe the morphologies formed by peptides. A micropipette was used to load 10 μL of sample solution to a carbon-coated copper grid, and we used a piece of filter paper to remove the excess solution. After rinsing the grid with the deionized water, we used uranyl acetate to stain the sample for 1 minute and then rinsed the grid with deionized water again.

C57BL/6 mice = format: in vivo, C57BL/6 J mice; details: serum day 21
[4] = 120 mM peptide (highest tested) in ultrapure water, pH 6.5-8.5 (1 N NaOH), precipitate, sol, suspension = no gel
[5] = 30 mM peptide in ultrapure water, pH adjusted to 6.5-8.5 with 1 N NaOH, concentration raised 30/60/90/120 mM until gelation
[6] = 60 mM peptide in ultrapure water, pH 6.5-8.5 (1 N NaOH), no gel at 30 mM

With N[C@@H](CCC(=O)O)C(=O)N[C@@H](CCC(=O)O)C(=O)N[C@@H](CCC(=O)O)C(=O)N[C@@H](CCC(=O)O)C(=O)O [EEEE] (H-EEEE-OH) the State [1, 4] was “suspension”, the “Concentration” value [1] was 120000 µM and the GELATION ([1]; peptide concentration 120 mM) was 0. The “appearance of aqueous solution (optical image)” value (“appearance of aqueous solution” below) ([2]; 30 mM) was “uniform and clear solutions”, the “appearance of aqueous solution” value ([2]; 60 mM) was “uniform and clear solutions” and the “appearance of aqueous solution” value ([2]; 90 mM) was “uniform and clear solutions”. For the same compound, the “appearance of aqueous solution” value ([2]; 120 mM) was “opaque suspension” and the Morphology ([3]; line of the table gives 120 mM) was “sheet”.
For NC(=O)CC[C@H](NC(=O)[C@H](CCC(N)=O)NC(=O)[C@H](CCC(N)=O)NC(=O)[C@@H](N)CCC(N)=O)C(=O)O [QQQQ] (H-QQQQ-OH), the State [1, 4] was “suspension”, the “Concentration” value [1] was 120000 µM and the GELATION ([1]; peptide concentration 120 mM) was 0. The “appearance of aqueous solution” value ([2]; 30 mM) was “clear solution”, the “appearance of aqueous solution” value ([2]; 60 mM) was “solution transparency decreased” and the “appearance of aqueous solution” value ([2]; 90 mM) was “solution transparency decreased”. The “appearance of aqueous solution” value ([2]; 120 mM) was “solution transparency decreased” and the Morphology ([3]; line of the table gives 120 mM) was “sheet”.
For CC[C@H](C)[C@H](NC(=O)[C@@H](NC(=O)[C@@H](N)Cc1c[nH]c2ccccc12)[C@@H](C)O)C(=O)N[C@@H](Cc1ccccc1)C(=O)O [WTIF] (H-WTIF-OH), the State [1, 5] was “gel”, the “Concentration” value [1] was 30000 µM and the GELATION ([1]; peptide concentration 30 mM) was 1. For the same compound, the “hydrogel formation (in words)” value [1] was “hydrogels”, the Morphology ([3]; line of the table gives 30 mM) was “fibre” and the “morphology by TEM (in words)” value [3] was “entangled nanofibers”.
In the case of CC[C@H](C)[C@H](NC(=O)[C@H](Cc1ccccc1)NC(=O)[C@@H](NC(=O)[C@@H](N)Cc1c[nH]c2ccccc12)C(C)C)C(=O)O [WVFI] (H-WVFI-OH), the State [1, 4] is reported as “suspension”, the “Concentration” value [1] is reported as 120000 µM and the GELATION ([1]; peptide concentration 120 mM) is reported as 0. The Morphology ([3]; line of the table gives 120 mM) was “aggregates”.
With CC(C)[C@H](NC(=O)[C@@H](N)Cc1c[nH]c2ccccc12)C(=O)N[C@@H](Cc1ccccc1)C(=O)N[C@@H](Cc1ccc(O)cc1)C(=O)O [WVFY] (H-WVFY-OH) the State [1, 5] was “gel”, the “Concentration” value [1] was 30000 µM and the GELATION ([1]; peptide concentration 30 mM) was 1. For the same compound, the “hydrogel formation (in words)” value [1] was “hydrogels”, the Morphology ([3]; line of the table gives 30 mM) was “sheet” and the “morphology by TEM (in words)” value [3] was “interlaced nanosheets”.
For CC[C@H](C)[C@H](NC(=O)[C@@H](NC(=O)[C@@H](NC(=O)[C@@H](N)Cc1c[nH]c2ccccc12)C(C)C)[C@@H](C)CC)C(=O)O [WVII] (H-WVII-OH), the State [1, 6] was “gel”, the “Concentration” value [1] was 60000 µM and the GELATION ([1]; peptide concentration 60 mM) was 1. The “hydrogel formation (in words)” value [1] was “can form hydrogel” and the Morphology ([3]; line of the table gives 60 mM) was “fibre”.
With N[C@@H](Cc1c[nH]c2ccccc12)C(=O)N[C@@H](Cc1c[nH]c2ccccc12)C(=O)N[C@@H](CS)C(=O)N1CCC[C@H]1C(=O)O [WWCP] (H-WWCP-OH) the State [1, 4] was “precipitate”, the “Concentration” value [1] was 120000 µM and the GELATION ([1]; peptide concentration 120 mM) was 0. The “hydrogel formation (in words)” value [1] was “cannot” and the Morphology ([3]; line of the table gives 120 mM) was “aggregates”.
In the case of CSCC[C@H](NC(=O)[C@H](Cc1c[nH]c2ccccc12)NC(=O)[C@@H](N)Cc1c[nH]c2ccccc12)C(=O)N[C@@H](Cc1ccccc1)C(=O)O [WWMF] (H-WWMF-OH), the State [1, 4] is reported as “gel”, the “Concentration” value [1] is reported as 120000 µM and the GELATION ([1]; peptide concentration 120 mM) is reported as 1. The Morphology ([3]; line of the table gives 120 mM) was “rod”.
In the case of N[C@@H](Cc1c[nH]c2ccccc12)C(=O)N[C@@H](Cc1c[nH]c2ccccc12)C(=O)N[C@@H](Cc1c[nH]c2ccccc12)C(=O)N[C@@H](Cc1c[nH]c2ccccc12)C(=O)O [WWWW] (H-WWWW-OH), the State [1, 4] is reported as “suspension”, the “Concentration” value [1] is reported as 120000 µM and the GELATION ([1]; peptide concentration 120 mM) is reported as 0. The Morphology ([3]; line of the table gives 120 mM) was “sphere”.
In the case of N[C@@H](Cc1c[nH]c2ccccc12)C(=O)N[C@@H](Cc1ccc(O)cc1)C(=O)N[C@@H](Cc1ccccc1)C(=O)N[C@@H](Cc1ccccc1)C(=O)O [WYFF] (H-WYFF-OH), the State [1, 5] is reported as “gel”, the “Concentration” value [1] is reported as 30000 µM and the GELATION ([1]; peptide concentration 30 mM) is reported as 1. The Morphology ([3]; line of the table gives 30 mM) was “fibre”.
For C[C@H](NC(=O)[C@@H](N)Cc1ccc(O)cc1)C(=O)N[C@@H](Cc1c[nH]c2ccccc12)C(=O)N[C@@H](Cc1ccccc1)C(=O)O [YAWF] (H-YAWF-OH), the State [1, 6] was “gel”, the “Concentration” value [1] was 60000 µM and the GELATION ([1]; peptide concentration 60 mM) was 1. The “hydrogel formation (in words)” value [1] was “can form hydrogels”, the Morphology ([3]; line of the table gives 60 mM) was “fibre” and the “morphology by TEM (in words)” value [3] was “nanofibrous network”. The “increase of RBD-specific IgG2b response compared with the commercial aluminum adjuvant group” value (C57BL/6 mice; C57BL/6 mice) was “around 9.7 fold”, the “production of RBD-specific IgG1 (in words)” value (C57BL/6 mice; C57BL/6 mice, similar to the aluminum group) was “significantly enhanced” and the “RBD-specific IgG2c titers (in words)” value (C57BL/6 mice; C57BL/6 mice, surpassing aluminum group or control group) was “high IgG2c titers”. For the same compound, the “enhancement of the generation of IgG compared with the RBD group” value (C57BL/6 mice; […], C57BL/6 mice) was 41.6 fold and the “endpoint titre of RBD-specific IgG in serum” value (C57BL/6 mice; mean of n = 6 mice, s.c. immunization day 0, 7, 14 with 15 μg RBD alone, with 12.5 μL aluminum adjuvant or 60 mM YAWF hydrogel, […]) was 58615.2.
In the case of C[C@H](NC(=O)[C@@H](N)Cc1ccc(O)cc1)C(=O)N[C@@H](Cc1ccc(O)cc1)C(=O)N[C@@H](Cc1ccc(O)cc1)C(=O)O [YAYY] (H-YAYY-OH), the State [1, 4] is reported as “sol”, the “Concentration” value [1] is reported as 120000 µM and the GELATION ([1]; peptide concentration 120 mM) is reported as 0. For the same compound, the Morphology ([3]; line of the table gives 120 mM) was “aggregates”.
In the case of CC[C@H](C)[C@H](NC(=O)[C@H](Cc1ccc(O)cc1)NC(=O)[C@@H]1CCCN1C(=O)[C@@H](N)Cc1ccc(O)cc1)C(=O)O [YPYI] (H-YPYI-OH), the State [1, 4] is reported as “sol”, the “Concentration” value [1] is reported as 120000 µM and the GELATION ([1]; peptide concentration 120 mM) is reported as 0. For the same compound, the Morphology ([3]; line of the table gives 120 mM) was “aggregates”.
In the case of CC(C)[C@H](NC(=O)[C@@H](N)Cc1ccc(O)cc1)C(=O)N[C@@H](Cc1ccccc1)C(=O)N[C@@H](C)C(=O)O [YVFA] (H-YVFA-OH), the State [1, 4] is reported as “gel”, the “Concentration” value [1] is reported as 120000 µM and the GELATION ([1]; peptide concentration 120 mM) is reported as 1. The Morphology ([3]; line of the table gives 120 mM) was “sphere”.
For N[C@@H](Cc1ccc(O)cc1)C(=O)N[C@@H](Cc1ccc(O)cc1)C(=O)N[C@@H](Cc1ccc(O)cc1)C(=O)N[C@@H](Cc1ccc(O)cc1)C(=O)O [YYYY] (H-YYYY-OH), the State [1, 4] was “sol”, the “Concentration” value [1] was 120000 µM and the GELATION ([1]; peptide concentration 120 mM) was 0. The Morphology ([3]; line of the table gives 120 mM) was “aggregates”.
In the case of CCCC, the State [1, 4] is reported as “suspension”, the “Concentration” value [1] is reported as 120000 µM and the GELATION ([1]; peptide concentration 120 mM) is reported as 0. For the same compound, the Morphology ([3]; line of the table gives 120 mM) was “sphere”.
